One series has as its system P388 leukemia. The following applies: cited from earlier work; for antitumor activity / toxicity: P388 leukemia in CDF1 mice.
The next series deals with L1210 cells. The conditions noted are these: cited from earlier work.
For the next series, the system named is KB cells. The conditions noted are these: cited from earlier work.
A further series deals with HT29. The series can be described thus: SRB colorimetric cell growth inhibition assay, HT29. It is filed as cell-based. The protocol:
(§1) The assays of antitumor activity allow detecting extracts or compounds with cytotoxic activity (cell death) or cytostatic activity (growth inhibition) in in vitro cultures of tumor cells of human origin.
(§2) The quantification of cell growth in vitro was carried out by means of a calorimetric assay with sulforhodamine B (SRB) (following an adaptation of the previously described method by Philip Skehan et al. 1990, J. Natl. Cancer Inst., 82:1107-1112).
(§3) This type of assay uses 96-well culture microplates, (Mosmann, 1983, Faircloth, 1988). Most of the cell lines used are obtained from the American Type Culture Collection (ATCC) and derived from different types of human tumors.
(§4) The cell cultures are maintained in DMEM culture medium (supplemented with 10% fetal bovine serum (FBS), 1% penicillin/streptomycin 1% glutamine) at 37° C., 5% CO2 and 98% humidity.
(§5) For the assays, the cells are trypsinized and seeded in 96-well microplates at different concentrations depending on the cell line, and are incubated for 24 hours in an active ingredient-free medium for their stabilization. The cultures are then treated (final concentration varies depending on the type of assay) with carrier (DMSO:DMEM, 1:1) or active ingredient. After 48 hours of exposure to the active ingredient, the antitumor effect is measured by means of the previously mentioned SRB method, which basically consists of: fixing the cells with a 1% glutaraldehyde solution (30 min, RT), washing of the fixer in PBS (3 washings, RT), staining the cultures with a 0.4% SRB solution (30 min, RT), washing of the colorant in 1% acetic acid solution (3 washings, RT), air-drying the plates and final extraction of the colorant with Tris buffer. The quantification of the assay is carried out by means of optical density reading of the plates in a spectrophotometric microplate reader at a single wavelength of 490 nm. […]

The subject of the next series is A549. The series can be described thus: SRB colorimetric cell growth inhibition assay, A549. It counts as cell-based. The protocol: as §1, §2, §3, §4, §5
The next series relates to MDA-MB-231. The series can be described thus: SRB colorimetric cell growth inhibition assay, MDA-MB-231. It is filed as cell-based. The protocol:
as §1, §2, §3, §4, §5

The next series relates to MDA-MB-231 cancer cells. The conditions noted are these: cited from earlier work.
A further series deals with HCT-8 cancer cells. The conditions noted are these: cited from earlier work.
A further series concerns P388 cancer cells. The conditions noted are these: cited from earlier work.
The next series concerns A549 cancer cells. The conditions noted are these: cited from earlier work.

The values that follow come from US20090030068A1, “Antitumour Compounds” (PHARMA MAR, S.A., priority 2005, published 2009).

Converted amounts (≈) assume the structure as drawn.

In the case of `CO[C@H]1C[C@H](CC[C@H](C)[C@H](O)[C@H](C)[C@H]2OC(=O)/C=C/C(C)=C/C[C@H](O)C[C@@H]3C=CC[C@@H](C[C@H](OC)[C@@H](C)[C@@H](O)C[C@@H](O)[C@H](C)[C@@H]([C@@H](C)[C@@H](O)[C@@H](C)CC[C@H]4C[C@H](OC)C[C@H](C)O4)OC(=O)/C=C/C(C)=C/C[C@H](O)C[C@@H]4C=CC[C@@H](C[C@H](OC)[C@@H](C)[C@@H](O)C[C@@H](O)[C@@H]2C)O4)O3)O[C@@H](C)C1` [Swinholide A], in the series on P388 leukemia, the antitumor activity result is given as “did not show promising antitumor activity”. Further, the toxicity entry with P388 leukemia was “toxic”. Further, the “IC50 (cytotoxicity)” value in the series on L1210 cells was 0.03 µg/mL (≈ 0.0216 µM); with KB cells, 0.04 µg/mL (≈ 0.0288 µM).

As to `COC1CC(C)OC(CCC(C)C(O)C(C)C2OC(=O)/C=C\C(C)=C\CC(O)CC3C=CCC(CC(OC)C(C)C(O)CC(O)C(C)C(C(C)C(O)C(C)CCC4CC(O)CC(C)O4)OC(=O)/C=C\C(C)=C\CC(O)CC4C=CCC(CC(OC)C(C)C(O)CC(O)C2C)O4)O3)C1` (stereo not shown) [Swinholide C], the “IC50 (cytotoxicity)” value in the series on L1210 cells was 0.14 µg/mL (≈ 0.102 µM); with KB cells it was 0.05 µg/mL (≈ 0.0363 µM).

Take `COC1CC(C)OC(CCC(C)C(O)C(C)C2OC(=O)/C=C/C(C)=C/CC(O)CC3C=CCC(CC(OC)C(C)C(O)CC(O)C(C)C(C(C)C(O)C(C)CCC4CC(OC)CC(C)O4)OC(=O)/C(C)=C/CC(O)CC4C=CCC(CC(OC)C(C)C(O)CC(O)C2C)O4)O3)C1` (stereo not shown) [Compound A]: the TGI in the series on HT29 (Colon HT29, 48 hours of exposure, concentration causing total growth inhibition) was determined as 8.81E−7 Molar; in the series on A549 (NSCL (Lung) A549, 48 hours of exposure, concentration causing total growth inhibition), 3.38E−7 Molar; in the series with MDA-MB-231 (Breast MDA-MB-231, 48 hours of exposure, concentration causing total growth inhibition), 2.35E−6 Molar. The LC50 (concentration killing 50% of cells) with HT29 (Homo sapiens, HT-29, 48 h, read-out: LC50) worked out at 2200 nM. The GI50 (commonly the concentration that inhibits growth by half) with HT29 (Homo sapiens, HT-29, Colon HT29, 48 hours of exposure, concentration causing 50% growth inhibition) came out at 338 nM; with A549 (Homo sapiens, NSCL (Lung) A549, 48 hours of exposure, concentration causing 50% growth inhibition), 228 nM; in the series on MDA-MB-231 (Homo sapiens, Breast MDA-MB-231, 48 hours of exposure, concentration causing 50% growth inhibition), 808 nM. In addition, the CC50 was 529 nM in the series with A549 (Homo sapiens, A549, 48 h, read-out: LC50) and 4.77 µM in the series on MDA-MB-231 (Homo sapiens, MDA-MB-231, 48 h, read-out: LC50).

As to isoswinholide A, in the series on P388 leukemia, the antitumor activity entry was “did not show promising antitumor activity” and the toxicity result is “toxic”. Further, in the series with L1210 cells, the “IC50 (cytotoxicity)” value is 1.35 µg/mL. Further, in the series on KB cells, the “IC50 (cytotoxicity)” value is 1.1 µg/mL.

Consider `CO[C@H]1C[C@H](CC[C@H](C)[C@H](O)[C@H](C)[C@H]2OC(=O)/C(C)=C/C[C@H](O)C[C@@H]3C=CC[C@@H](C[C@H](OC)[C@@H](C)[C@@H](O)C[C@@H](O)[C@H](C)[C@@H]([C@@H](C)[C@@H](O)[C@@H](C)CC[C@H]4C[C@H](OC)C[C@H](C)O4)OC(=O)/C(C)=C/C[C@H](O)C[C@@H]4C=CC[C@@H](C[C@H](OC)[C@@H](C)[C@@H](O)C[C@@H](O)[C@@H]2C)O4)O3)O[C@@H](C)C1` [Misakinolide A], for which, in the series with P388 leukemia (dose of 0.1 mg/kg (mouse), P388 leukemia), the T/C (commonly the ratio of treated to control) was 140%. The “in vitro antitumor activity” value in the series with MDA-MB-231 cancer cells, in the series with HCT-8 cancer cells, in the series on P388 cancer cells and in the series with A549 cancer cells was “in vitro antitumor activity” throughout. In the series on L1210 cells, the “IC50 (cytotoxicity)” value was 0.035 µg/mL (≈ 0.0262 µM).
